The experiment has as its system SMN protein. Description: cellular SMN ELISA (SMN protein elevation). It counts as cell-based. Conditions: ELISA condition 2: compound concentration 100 pM-10 uM, myoblast cell line from SMNdelta7 mouse model, 24 hours treatment; for SMN activity Fold: fold activation over DMSO control. In short, it runs like this: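 Readout is fold SMN elevation versus DMSO plus EC50, measured by anti-SMN capture ELISA with 450 nm absorbance. Lysates came from a myoblast line of the SMNdelta7 mouse model after 24 h compound exposure, with dose ranges of 20 nM–10 μM (condition 1) or 100 pM–10 μM (condition 2).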

The text below walks through data of patent US10195196B2, “1,4-disubstituted pyridazine analogs there of and methods for treating SMN-deficiency-related conditions” (NOVARTIS AG, priority 2012, dated 2019).

SMILES strings stand for the structures.

`CN1C[C@@H]2CN(c3ccc(-c4ccc(-c5ccn(C)c(=O)c5)cc4O)nn3)C[C@@H]2C1` [Example 43-4, 4-(3-hydroxy-4-(6-(5-methylhexahydropyrrolo[3,4-c]pyrrol-2(1H)-yl)pyridazin-3-yl)phenyl)-1-methylpyridin-2(1H)-one]: the concentration giving a half-maximal response (EC50) worked out at 41 nM and the “SMN activity Fold” value is on record as 2.94 Fold.

In the case of `CN1CC[C@@H]2CN(c3ccc(-c4ccc(-c5ccn(C)c(=O)c5)cc4O)nn3)C[C@@H]21` [Example 43-5, 4-(3-hydroxy-4-(6-((3aR,6aR)-1-methylhexahydropyrrolo[3,4-b]pyrrol-5(1H)-yl)pyridazin-3-yl)phenyl)-1-methylpyridin-2(1H)-one], it took 159 nM to reach a half-maximal effect (EC50) and the “SMN activity Fold” value turned out to be 2.29 Fold.

On to `Cn1ccc(-c2ccc(-c3ccc(N4CCC5(CCCNC5)C4)nn3)c(O)c2)cc1=O` (stereo not drawn) [Example 43-7, 4-(4-(6-(2,7-diazaspiro[4.5]decan-2-yl)pyridazin-3-yl)-3-hydroxyphenyl)-1-methylpyridin-2(1H)-one], for which the EC50 turned out to be 156 nM and the “SMN activity Fold” value is 2.42 Fold.
